Columns and labels:
[1] = system: NRF2; experiment: AREc32 luciferase reporter assay; type: cell-based, human; details: EC2×: concentration required to increase GST ARE Luciferase reporter activity by 2-fold; AREc32 cells, 19 hours
How it was run: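 AREc32 cells (MCF-7 stably carrying eight rat GSTA2 ARE copies driving firefly luciferase) treated 19 h with compound (0.4–200 nM or 2–1000 nM), triplicate. Luminescence normalized to DMSO as fold-induction; variable-slope fit capped at 50-fold; EC2× = concentration giving 2-fold induction.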

[2] = system: IFNγ-induced Nitric Oxide production; experiment: Nitric oxide production assay in RAW 264.7 mouse macrophages; type: cell-based; details: RAW264.7, suppression of IFNγ-induced NO production normalized to cell viability (WST-1), RAW 264.7, 24 hours IFNγ
How it was run: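 Cells pre-treated 2 h with compound (0.4-200 nM or 2-1000 nM) in RPMI 1640 + 0.5% FBS, then stimulated with recombinant mouse IFNγ for 24 h at 37 °C. Nitrite measured by Griess reagent, viability by WST-1; IC50 from NO suppression normalized to viability and to DMSO/IFNγ controls.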

[3] = system: hIL17; experiment: IL-17 release from differentiated primary human T-cells (IL-17A HTRF assay); type: cell-based; details: inhibition of IL-17A levels; primary human CD4+ T cells differentiated into Th17 cells, 46-hour incubation
How it was run: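 Cryopreserved primary human CD4+ T cells were activated with anti-CD3/CD28 beads and driven to Th17 with TGF-β, IL-6, IL-23 and IL-1β in the presence of compound (2-500 nM or 4-1000 nM) for 46 h at 37° C. Supernatant IL-17A was quantified by HTRF against a standard curve and normalized to DMSO. IC50s came from variable-slope fits, with viability read by CyQuant.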

[4] = biological target: T1, human RORγ (Homo sapiens, UniProt P51449); experiment: RORγ assay (GAL4-RORγ hybrid luciferase reporter, inverse-agonist activity); type: cell-based; details: GAL4-RORγ hybrid reporter cells, 23 hours
T1 sequence (P51449 269-508 limits assumed): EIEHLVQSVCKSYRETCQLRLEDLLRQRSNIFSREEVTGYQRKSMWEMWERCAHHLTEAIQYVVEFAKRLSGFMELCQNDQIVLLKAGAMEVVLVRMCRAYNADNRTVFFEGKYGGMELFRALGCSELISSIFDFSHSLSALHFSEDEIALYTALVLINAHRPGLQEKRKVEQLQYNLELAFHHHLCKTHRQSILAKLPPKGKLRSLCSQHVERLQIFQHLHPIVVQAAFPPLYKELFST
How it was run: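 Human cell line expressing GAL4-DBD/RORγ hybrid with UAS-driven luciferase, treated in triplicate with compound (0.4–200 nM or 2–1000 nM) for 23 h at 37 °C. Luminescence normalized to DMSO; viability measured in parallel by multiplex assay. IC50 for RORγ and viability by variable-slope nonlinear regression.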

Compound	IC50 [3]	IC50 [4]	EC2x: concentration giving 2-fold induction of ARE luciferase reporter [1]	IC50 [2]
COC(=O)[C@]12CCC(C)(C)C[C@H]1[C@H]1C(=O)C=C3[C@@]4(C)C=C(C#N)C(=O)[C@@](C)(C(=O)N(C)C)[C@@H]4CC[C@@]3(C)[C@]1(C)CC2 [Compound T14]	46 nM	139 nM	>1000 nM	164 nM
CC1(C)CC[C@]2(NC(=O)C(C)(F)F)CC[C@]3(C)[C@H](C(=O)C=C4[C@@]5(C)C=C(C#N)C(=O)[C@@](C)(O)[C@@H]5CC[C@]43C)[C@@H]2C1 [Compound T27, N-((4aS,6aR,6bS,8aR,9S,12aS,14aR,14bS)-11-cyano-9-hydroxy-2,2,6a,6b,9,12a-hexamethyl-10,14-dioxo-1,3,4,5,6,6a,6b,7,8,8a,9,10,12a,14,14a,14b-hexadecahydropicen-4a(2H)-yl)-2,2-difluoropropanamide]	62 nM	410 nM	396 nM	146 nM
COC(=O)[C@]12CCC(C)(C)C[C@H]1[C@H]1C(=O)C=C3[C@@]4(C)C=C(C#N)C(=O)[C@@](C)(NC(=O)OC(C)(C)C)[C@@H]4CC[C@@]3(C)[C@]1(C)CC2 [Compound T10]	204 nM	1080 nM	>1000 nM	414 nM
CC(=O)OC[C@]1(C)C(=O)C(C#N)=C[C@]2(C)C3=CC(=O)[C@@H]4[C@@H]5CC(C)(C)CC[C@]5(c5nnc(C)o5)CC[C@@]4(C)[C@]3(C)CC[C@H]21 [Compound T43, ((4R,4aR,6aS,6bR,8aS,12aS,12bR,14bS)-2-cyano-4,6a,6b, 11,11,14b-hexamethyl-8a-(5-methyl-1,3,4-oxadiazol-2-yl)-3,13-dioxo-3,4,4a,5,6,6a,6b,7,8,8a,9,10,11,12,12a,12b,13,14b-octadecahydropicen-4-yl)methyl acetate]	46 nM	146 nM	369 nM	110 nM
COC(=O)[C@]12CCC(C)(C)C[C@H]1[C@H]1C(=O)C=C3[C@@]4(C)C=C(C#N)C(=O)[C@@](C)(CCO[Si](C)(C)C(C)(C)C)[C@@H]4CC[C@@]3(C)[C@]1(C)CC2 [Compound T18, methyl (4aS,6aR,6bS,8aR,9S,12aS,14aR,14bS)-9-(2-((tert-butyldimethylsilyl)oxy)ethyl)-11-cyano-2,2,6a,6b,9,12a-hexamethyl-10,14-dioxo-1,3,4,5,6,6a,6b,7,8,8a,9,10,12a,14,14a, 14b-hexadecahydropicene-4a(2H)-carboxylate]	24 nM	583 nM	585 nM	78.5 nM
COC(=O)[C@]12CCC(C)(C)C[C@H]1[C@H]1C(=O)C=C3[C@@]4(C)C=C(C#N)C(=O)[C@@](C)(C(=O)OC)[C@@H]4CC[C@@]3(C)[C@]1(C)CC2 [Compound T2, dimethyl (4S,4aR,6aS,6bR,8aS,12aS,12bR,14bS)-2-cyano-4,6a,6b,11,11,14b-hexamethyl-3,13-dioxo-4,4a,5,6,6a,6b,7,8,9,10,11,12,12a,12b,13,14b-hexadecahydropicene-4,8a(3H)-dicarboxylate]	19 nM	216 nM	204 nM	92 nM
CC(=O)OC[C@]1(C)C(=O)C(C#N)=C[C@]2(C)C3=CC(=O)[C@@H]4[C@@H]5CC(C)(C)CC[C@]5(C(=O)NCC(F)(F)F)CC[C@@]4(C)[C@]3(C)CC[C@H]21 [Compound T23, ((4R,4aR,6aS,6bR,8aS,12aS,12bR,14bS)-2-cyano-4,6a,6b, 11,11,14b-hexamethyl-3,13-dioxo-8a-((2,2,2-trifluoroethyl)carbamoyl)-3,4,4a,5,6,6a,6b,7,8,8a,9,10,11,12,12a,12b,13,14b-octadecahydropicen-4-yl)methyl acetate]	68 nM	145 nM	484 nM	150 nM

Second part, led by results:

IC50 [3]	IC50 [4]	Compound	EC2x: concentration giving 2-fold induction of ARE luciferase reporter [1]	IC50 [2]
33 nM	203 nM	COC(=O)C[C@]1(C)C(=O)C(C#N)=C[C@]2(C)C3=CC(=O)[C@@H]4[C@@H]5CC(C)(C)CC[C@]5(C(=O)OC)CC[C@@]4(C)[C@]3(C)CC[C@H]21 [Compound T21, methyl (4aS,6aR,6bS,8aR,9S,12aS,14aR,14bS)-11-cyano-9-(2-methoxy-2-oxoethyl)-2,2,6a,6b,9,12a-hexamethyl-10,14-dioxo-1,3,4,5,6,6a,6b,7,8,8a,9,10,12a,14,14a,14b-hexadecahydropicene-4a(2H)-carboxylate]	269 nM	105 nM
59 nM	164 nM	CN(C)C(=O)[C@]12CCC(C)(C)C[C@H]1[C@H]1C(=O)C=C3[C@@]4(C)C=C(C#N)C(=O)[C@@](C)(O)[C@@H]4CC[C@@]3(C)[C@]1(C)CC2 [Compound T30, (4aS,6aR,6bS,8aR,9S,12aS,14aR,14bS)-11-cyano-9-hydroxy-N,N,2,2,6a,6b,9,12a-octamethyl-10,14-dioxo-1,3,4,5,6,6a,6b,7,8,8a,9,10,12a,14,14a,14b-hexadecahydropicene-4a(2H)-carboxamide]	448 nM	173 nM
13 nM	115 nM	CC(=O)OC[C@]1(C)C(=O)C(C#N)=C[C@]2(C)C3=CC(=O)[C@@H]4[C@@H]5CC(C)(C)CC[C@]5(c5nc(C)no5)CC[C@@]4(C)[C@]3(C)CC[C@H]21 [Compound T46, ((4R,4aR,6aS,6bR,8aS,12aS,12bR,14bS)-2-cyano-4,6a,6b, 11,11,14b-hexamethyl-8a-(3-methyl-1,2,4-oxadiazol-5-yl)-3,13-dioxo-3,4,4a,5,6,6a,6b,7,8,8a,9,10,11,12,12a,12b,13,14b-octadecahydropicen-4-yl)methyl acetate]	366 nM	101 nM
17 nM	144 nM	COC(=O)[C@]12CCC(C)(C)C[C@H]1[C@H]1C(=O)C=C3[C@@]4(C)C=C(C#N)C(=O)[C@](C)(CO)[C@@H]4CC[C@@]3(C)[C@]1(C)CC2 [Comparison Compound #301, reference compound]	8 nM	1.8 nM
30 nM	250 nM	COCC[C@]1(C)C(=O)C(C#N)=C[C@]2(C)C3=CC(=O)[C@@H]4[C@@H]5CC(C)(C)CC[C@]5(C(=O)OC)CC[C@@]4(C)[C@]3(C)CC[C@H]21 [Compound T17, methyl (4aS,6aR,6bS,8aR,9S,12aS,14aR,14bS)-11-cyano-9-(2-methoxyethyl)-2,2,6a,6b,9,12a-hexamethyl-10,14-dioxo-1,3,4,5,6,6a,6b,7,8,8a,9,10,12a,14,14a,14b-hexadecahydropicene-4a(2H)-carboxylate]	64 nM	19.5 nM
32 nM	115 nM	COC(=O)[C@]12CCC(C)(C)C[C@H]1[C@H]1C(=O)C=C3[C@@]4(C)C=C(C#N)C(=O)[C@](C)(O)[C@@H]4CC[C@@]3(C)[C@]1(C)CC2 [Compound T6, methyl (4aS,6aR,6bS,8aR,9R,12aS,14aR,14bS)-11-cyano-9-hydroxy-2,2,6a,6b,9,12a-hexamethyl-10,14-dioxo-1,3,4,5,6,6a,6b,7,8,8a,9,10,12a,14,14a,14b-hexadecahydropicene-4a(2H)-carboxylate]	30 nM	9.2 nM
15 nM	233 nM	COC(=O)[C@]12CCC(C)(C)C[C@H]1[C@H]1C(=O)C=C3[C@@]4(C)C=C(C#N)C(=O)[C@@](C)(CCO)[C@@H]4CC[C@@]3(C)[C@]1(C)CC2 [Compound T19]	76 nM	17.4 nM
37 nM	141 nM	CC(=O)OC[C@]1(C)C(=O)C(C#N)=C[C@]2(C)C3=CC(=O)[C@@H]4[C@@H]5CC(C)(C)CC[C@]5(NC(=O)C(C)(F)F)CC[C@@]4(C)[C@]3(C)CC[C@H]21 [Compound T29, ((4R,4aR,6aS,6bR,8aS,12aS,12bR,14bS)-2-cyano-8a-(2,2-difluoropropanamido)-4,6a,6b,11,11,14b-hexamethyl-3,13-dioxo-3,4,4a,5,6,6a,6b,7,8,8a,9,10,11,12,12a,12b,13,14b-octadecahydropicen-4-yl)methyl acetate]	360 nM	118 nM

Reference: patent publication US11584775B2, “C4-modified oleanolic acid derivatives for inhibition of IL-17 and other uses” (REATA PHARMACEUTICALS, INC., priority 2015, dated 2023)
